Where two headings read alike, the source gives them in different places.
Tests used:
Type in all cases: biochemical
human PPARα-LBD = biological target: T1, human PPARα-LBD (Homo sapiens, UniProt Q07869); assay: TR-FRET coactivator recruitment assay, PPARα-LBD; design: extent of recruitment of all four coactivators to PPARα-LBD: reference not given here; conditions: for EC50: Buffer A; for Approximate potency order in the recruitment of four coactivators, PPARα: evaluated based on EC50 values, PGC, PGC1α, SRC, SRC1, TRAP, TRAP220
T1 construct: Human PPARα-LBD [amino acids (AAs) 200–468]; made in house
T1 sequence (Q07869 200-468): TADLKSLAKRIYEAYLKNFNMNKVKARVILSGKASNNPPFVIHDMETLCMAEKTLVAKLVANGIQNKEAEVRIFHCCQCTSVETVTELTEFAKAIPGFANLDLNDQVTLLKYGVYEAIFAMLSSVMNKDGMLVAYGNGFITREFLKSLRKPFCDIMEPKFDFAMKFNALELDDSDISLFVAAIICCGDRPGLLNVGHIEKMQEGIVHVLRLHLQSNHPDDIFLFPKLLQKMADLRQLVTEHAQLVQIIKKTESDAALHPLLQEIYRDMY

human PPARδ-LBD = biological target: T2, human PPARδ-LBD (Homo sapiens, UniProt Q03181); assay: TR-FRET coactivator recruitment assay, PPARδ-LBD
T2 construct: PPARδ-LBD (AAs 170–441); made in house
T2 sequence (Q03181 170-441): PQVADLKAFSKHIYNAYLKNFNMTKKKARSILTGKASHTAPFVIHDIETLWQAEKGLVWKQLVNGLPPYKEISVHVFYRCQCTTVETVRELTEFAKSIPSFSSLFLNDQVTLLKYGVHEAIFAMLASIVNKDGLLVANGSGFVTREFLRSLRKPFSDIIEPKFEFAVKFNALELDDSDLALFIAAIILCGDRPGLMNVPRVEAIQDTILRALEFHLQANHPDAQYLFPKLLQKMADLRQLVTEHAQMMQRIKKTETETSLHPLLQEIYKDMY

human PPARγ-LBD = biological target: T3, human PPARγ-LBD (Homo sapiens, UniProt P37231); assay: TR-FRET coactivator recruitment assay, PPARγ-LBD
T3 construct: PPARγ-LBD (AAs 203–477 in isoform 1); made in house
T3 sequence (P37231 203-477 isoform P37231-2): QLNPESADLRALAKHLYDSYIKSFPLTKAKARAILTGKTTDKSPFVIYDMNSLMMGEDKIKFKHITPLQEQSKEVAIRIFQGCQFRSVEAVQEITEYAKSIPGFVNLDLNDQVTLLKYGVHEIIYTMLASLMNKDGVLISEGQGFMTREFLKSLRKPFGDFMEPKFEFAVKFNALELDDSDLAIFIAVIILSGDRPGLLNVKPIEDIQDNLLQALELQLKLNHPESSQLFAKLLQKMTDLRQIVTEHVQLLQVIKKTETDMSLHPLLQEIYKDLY

[1] = CBP peptide recruitment, read-out: PPARα CBP EC50
[2] = PGC1α peptide recruitment, read-out: PPARα PGC1α EC50
[3] = SRC1 peptide recruitment, read-out: PPARα SRC1 EC50
[4] = TRAP220 peptide recruitment, read-out: PPARα TRAP220 EC50
[5] = read-out: PPARα CBP % of GW7647 max response
[6] = read-out: PPARα PGC1α % of GW7647 max response
[7] = read-out: PPARα SRC1 % of GW7647 max response
[8] = read-out: PPARα TRAP220 % of GW7647 max response
[9] = CBP peptide recruitment, Buffer A, read-out: PPARδ CBP EC50
[10] = PGC1α peptide recruitment, Buffer A, read-out: PPARδ PGC1α EC50
[11] = SRC1 peptide recruitment, Buffer A, read-out: PPARδ SRC1 EC50
[12] = TRAP220 peptide recruitment, Buffer A, read-out: PPARδ TRAP220 EC50
[13] = evaluated based on EC50 values, PGC, PGC1α, SRC, SRC1, TRAP, TRAP220
[14] = read-out: PPARδ CBP % of GW501516 max response
[15] = read-out: PPARδ PGC1α % of GW501516 max response
[16] = read-out: PPARδ SRC1 % of GW501516 max response
[17] = read-out: PPARδ TRAP220 % of GW501516 max response
[18] = CBP peptide recruitment, Buffer A, read-out: PPARγ CBP EC50
[19] = PGC1α peptide recruitment, Buffer A, read-out: PPARγ PGC1α EC50
[20] = SRC1 peptide recruitment, Buffer A, read-out: PPARγ SRC1 EC50
[21] = TRAP220 peptide recruitment, Buffer A, read-out: PPARγ TRAP220 EC50
[22] = read-out: PPARγ CBP % of GW1929 max response
[23] = read-out: PPARγ PGC1α % of GW1929 max response
[24] = read-out: PPARγ SRC1 % of GW1929 max response
[25] = read-out: PPARγ TRAP220 % of GW1929 max response

Compound | EC50 (human PPARα-LBD; [1]) [µM] | EC50 (human PPARα-LBD; [2]) [µM] | EC50 (human PPARα-LBD; [3]) [µM] | EC50 (human PPARα-LBD; [4]) [µM] | Approximate potency order in the recruitment of four coactivators, PPARα (human PPARα-LBD) | Emax (human PPARα-LBD; [5]) [%] | Emax (human PPARα-LBD; [6]) [%] | Emax (human PPARα-LBD; [7]) [%] | Emax (human PPARα-LBD; [8]) [%] | EC50 (human PPARδ-LBD; [9]) [µM] | Approximate potency order in the recruitment of four coactivators, PPARδ (human PPARδ-LBD; [13]) | Emax (human PPARδ-LBD; [14]) [%] | Emax (human PPARδ-LBD; [15]) [%] | Emax (human PPARδ-LBD; [16]) [%] | Emax (human PPARδ-LBD; [17]) [%] | Approximate potency order in the recruitment of four coactivators, PPARγ (human PPARγ-LBD; [13]) | Emax (human PPARγ-LBD; [22]) [%] | Emax (human PPARγ-LBD; [23]) [%] | Emax (human PPARγ-LBD; [24]) [%] | Emax (human PPARγ-LBD; [25]) [%] | other results
CCO[C@H](COc1ccc(C(F)(F)F)cc1)CSc1ccc(OCC(=O)O)c(C)c1 [Seladelpar, seladelpar] | 1.19 | 2.05 | 1.92 | 1.84 | CBP>PGC>SRC=TRAP | 49.2 | 34.3 | 15.5 | 11 | 0.0468 | PGC>CBP>SRC=TRAP | 120 | 113 | 146 | 136 | PGC=CBP>TRAP>SRC | 45.9 | 49.8 | 11.9 | 20.5 | EC50 (human PPARδ-LBD; [10]): 0.0317 µM; EC50 (human PPARδ-LBD; [11]): 0.0748 µM; EC50 (human PPARδ-LBD; [12]): 0.0607 µM; recruitment of coactivators to PPARδ-LBD (in words) (human PPARδ-LBD; four coactivator peptides): effective; EC50 (human PPARδ-LBD; range over PGC1α, CBP, SRC1, TRAP220, Buffer A, read-out: EC50 values on the four coactivators, PPARδ): 0.0317 to 0.0748 µM; extent of recruitment of four coactivators to PPARδ-LBD (human PPARδ-LBD; range over four coactivators, 100% = 0.1 µM GW501516): 113–146%; EC50 (human PPARγ-LBD; [18]): 10.7 µM; EC50 (human PPARγ-LBD; [19]): 4.98 µM; EC50 (human PPARγ-LBD; [20]): 22.4 µM; EC50 (human PPARγ-LBD; [21]): 13.6 µM
CSc1ccc(C(=O)/C=C/c2cc(C)c(OC(C)(C)C(=O)O)c(C)c2)cc1 [Elafibranor, elafibranor] | 2.77 | 6.44 | 4.98 | 4.28 | CBP>PGC=SRC=TRAP | 61.6 | 45.6 | 41.6 | 36.2 | – | PGC>TRAP>CBP>SRC | 30.8 | 68.5 | 19.9 | 44 | PGC=CBP=TRAP>SRC | 36 | 30.8 | 9.11 | 29 | recruitment of coactivators to PPARδ-LBD (in words) (human PPARδ-LBD; four coactivator peptides): effective; EC50 (human PPARγ-LBD; [18]): > 10 µM; EC50 (human PPARγ-LBD; [19]): > 10 µM; EC50 (human PPARγ-LBD; [20]): > 30 µM; EC50 (human PPARγ-LBD; [21]): > 10 µM
CCO[C@@H](Cc1ccc(OCCn2c(C)ccc2-c2ccc(SC)cc2)cc1)C(=O)O [Saroglitazar, saroglitazar] | 0.28 | 0.761 | 0.814 | 0.674 | CBP>TRAP>PGC=SRC | 80.2 | 58.3 | 54.2 | 64.2 | > 100 | Faint activation | 6.72 | 8.94 | – | 2.5 | CBP>PGC>TRAP=SRC | 85 | 50.1 | 40 | 52.4 | EC50 (human PPARδ-LBD; [10]): 3.91 µM; EC50 (human PPARδ-LBD; [11]): > 100 µM; EC50 (human PPARδ-LBD; [12]): > 100 µM; EC50 (human PPARγ-LBD; [18]): 1.87 µM; EC50 (human PPARγ-LBD; [19]): 2.46 µM; EC50 (human PPARγ-LBD; [20]): 5.55 µM; EC50 (human PPARγ-LBD; [21]): 8.43 µM
CC[C@@H](Oc1cccc(CN(CCCOc2ccc(OC)cc2)c2nc3ccccc3o2)c1)C(=O)O [Pemafibrate, pemafibrate] | – | – | – | – | CBP>PGC=SRC>TRAP | 96.7 | 74.5 | 101 | 102 | 8.64 | PGC>CBP=TRAP>SRC | 74.6 | 91.1 | 58.6 | 77.3 | CBP=TRAP>PGC>SRC | 80.3 | 50.8 | 27.7 | 82.5 | EC50 (human PPARδ-LBD; [10]): 4.75 µM; EC50 (human PPARδ-LBD; [11]): 14.9 µM; EC50 (human PPARδ-LBD; [12]): 7.48 µM; recruitment of coactivators to PPARδ-LBD (in words) (human PPARδ-LBD; four coactivator peptides): effective; EC50 (human PPARγ-LBD; [18]): 5.58 µM; EC50 (human PPARγ-LBD; [19]): 8.02 µM; EC50 (human PPARγ-LBD; [20]): 13.8 µM; EC50 (human PPARγ-LBD; [21]): 5.59 µM
CC(C)(Oc1ccc(C(=O)c2ccc(Cl)cc2)cc1)C(=O)O [Fenofibric acid, fenofibric acid] | 3.41 | 8.02 | 11.1 | 7.33 | CBP>TRAP>PGC>SRC | 80.8 | 36.8 | 78.3 | 86 | > 500 | No activation | 0.45 | 0.16 | 0.6 | 2.76 | PGC=CBP=TRAP>SRC | 73 | 82.5 | 42 | 64.8 | EC50 (human PPARδ-LBD; [10]): > 500 µM; EC50 (human PPARδ-LBD; [11]): > 500 µM; EC50 (human PPARδ-LBD; [12]): > 500 µM
CCc1ccc(CCOc2ccc(CC3SC(=O)NC3=O)cc2)nc1 (stereo not shown) [Pioglitazone, pioglitazone] | – | – | – | – | CBP>>>PGC=SRC=TRAP | 34.9 | 13.9 | 8.37 | 3.67 | – | No activation | 2.47 | 4.53 | 1.19 | 1.55 | – | – | – | – | – | –
CC(C)(Oc1ccc(CCNC(=O)c2ccc(Cl)cc2)cc1)C(=O)O [Bezafibrate, bezafibrate] | – | – | – | – | CBP>PGC=TRAP>SRC | 79.2 | 74.5 | 72.4 | 76.4 | – | – | 64.6 | 90.3 | 50 | 85.8 | – | 68.7 | 68.6 | 34 | 55.7 | extent of recruitment of all four coactivators to PPARα-LBD (human PPARα-LBD): 72.4–79.2%; recruitment of coactivators to PPARα-LBD (in words) (human PPARα-LBD; four coactivator peptides): recruited all four coactivators; Approximate potency order in the recruitment of four coactivators, PPARδ (human PPARδ-LBD): TRAP>PGC>CBP>SRC; recruitment of coactivators to PPARδ-LBD (in words) (human PPARδ-LBD): recruited all four coactivators; EC50 (human PPARδ-LBD; PPARδ CBP EC50): 58.5 µM; EC50 (human PPARδ-LBD; PPARδ TRAP220 EC50): 24.5 µM; EC50 (human PPARδ-LBD; read-out: PPARδ PGC1α EC50): 35.8 µM; EC50 (human PPARδ-LBD; read-out: PPARδ SRC1 EC50): 101 µM; Approximate potency order in the recruitment of four coactivators, PPARγ (human PPARγ-LBD): PGC=CBP=TRAP>SRC; recruitment of coactivators to PPARγ-LBD (in words) (human PPARγ-LBD): recruited all four coactivators; EC50 (human PPARγ-LBD; PPARγ CBP EC50): 36.3 µM; EC50 (human PPARγ-LBD; PPARγ PGC1α EC50): 41.8 µM; EC50 (human PPARγ-LBD; PPARγ SRC1 EC50): 108 µM; EC50 (human PPARγ-LBD; PPARγ TRAP220 EC50): 24.5 µM
GW1929 | – | – | – | – | – | – | – | – | – | – | – | – | – | – | – | – | – | – | – | – | PPARγ CBP maximal fold-induction of basal levels (human PPARγ-LBD; CBP peptide, fold over no ligand): 14.7 ×; PPARγ PGC1α maximal fold-induction of basal levels (human PPARγ-LBD; PGC1α peptide, fold over no ligand): 11.9 ×; PPARγ SRC1 maximal fold-induction of basal levels (human PPARγ-LBD; SRC1 peptide, fold over no ligand): 12.6 ×; PPARγ TRAP220 maximal fold-induction of basal levels (human PPARγ-LBD; TRAP220 peptide, fold over no ligand): 15.5 ×; maximal fold-induction from basal (no ligand) levels on the four coactivators, PPARγ (human PPARγ-LBD; range over PGC1α, CBP, SRC1, TRAP220, Buffer A): 11.9–15.5 ×

Source: article PMC10967972, “Different Coactivator Recruitment to Human PPARα/δ/γ Ligand-Binding Domains by Eight PPAR Agonists to Treat Nonalcoholic Fatty Liver Disease” (Biomedicines, 2024)
